Results reported in patent publication US20260159486A1, “BENZO[H]QUINAZOLINE-4-AMINE DERIVATIVES FOR THE TREATMENT OF CANCER” (Redona Therapeutics, Inc., priority 2021, published 2026).

Experiments:
recombinant human CLK3 = molecular target: T1, recombinant human CLK3 (Homo sapiens, UniProt P49761); test: CLK3 kinase assay (LANCE Ultra); format: biochemical; details: CLK3 0.5 nM, ATP 300 μM, 3 hours at 30° C.
T1 construct: purchased Thermo Fisher Scientific PV3826
Description: CLK3 kinase activity was measured using the LANCE® Ultra technology (PerkinElmer) essentially as recommended by the supplier. Briefly, 2.5 μL of test sample at 4× the desired final concentration in 4% DMSO were dispensed into white, low volume, round bottom, 384 well plates (Corning, cat. no. 4512). 5 μL of a mixture containing recombinant human CLK3 (Thermo Fisher Scientific, cat. no. PV3826) and the labeled peptide substrate ULight™-CREBtide (PerkinElmer, cat. no. TRF0107) prepared in 1.33× kinase buffer (Thermo Fisher Scientific, cat. no. PV3189) were then added. Finally, the reactions were started by adding 2.5 μL of a 4× solution of ATP in kinase buffer. The plates were sealed with adhesive foils and incubated for 3 hours at 30° C. in the dark. The final concentrations of CLK3, ULight™-CREBtide, and ATP were 0.5 nM, 50 nM, and 300 μM, respectively. 5 μL of 40 mM EDTA were then added to terminate the reactions. The Eu-anti-phospho-CREB antibody (PerkinElmer, cat. no. TRF0200) diluted in LANCE® detection buffer (PerkinElmer, cat. no. CR97) was then added to a final concentration of 2 nM and the reactions were incubated for 1 hour at room temperature in the dark. The signals were measured using a Synergy 4 reader (BioTek) with a 320/80 nm filter for the excitation and 620/10 nm and 665/8 nm filters for the donor and acceptor emission, respectively. Relative inhibition values were calculated by normalizing the raw data using solvent control wells (0% inhibition) and wells that received no ATP (100% inhibition). IC50 values were calculated by fitting the concentration-response data to a sigmoidal 4-parameter logistic model. IC50 values for CLK3 are determined from duplicate measurements at ten different concentrations (serial 1:3 dilutions).

CAL-51 cells = test: CAL-51 proliferation assay; format: cell-based; details: Homo sapiens, CAL-51, 72 h, YO-PRO-1 Iodide readout
Source text: (§1) MDA-MB-231 and CAL-51 Proliferation Assay
(§2) Cells (MDA-MB-231 (American Type Culture Collection (ATCC), #HTB-26) or CAL-51 (Deutsche Sammlung von Mikroorganismen und Zellkulturen (DSMZ), #ACC302) as applicable) were cultivated in DMEM High Glucose (4.5 g/L) with L-Glutamine (BioConcept, cat. no. 1-26F03-I) supplemented with 1% Na-pyruvate (Sigma, cat. no. S8636), 1% Penicillin-Streptomycin (BioConcept, cat. no. 4-01F00H), and 10% FBS (Sigma, cat. no. F9665) using standard techniques. Cells were seeded in black, clear-bottom 384 well plates for tissue culture (Greiner Bio-One, cat. no. 781091) at a density of 750 cells per well in 20 μL medium and the plates were incubated overnight at 37° C. with 5% CO2 prior to treatment. Experimental compounds were serially diluted in DMSO to 200× the desired final concentrations. The solutions were then diluted 1:40 with culture medium and 5 μL aliquots were mixed into the wells containing the cells. The final concentration of DMSO was 0.5%. The plates were incubated for 72 hours and cell numbers were then measured using YO-PRO™-1 Iodide (ThermoFisher Scientific, cat. no. Y3603) essentially as recommended by the manufacturer. Briefly, a 12.5 μM solution of YO-PRO™_1 Iodide in 5× YO—PRO buffer (100 mM Na-citrate, 130 mM NaCl, pH 4) was combined with an equal volume of lysis buffer (0.6% NP-40, 30 mM EDTA, 30 mM EGTA, 0.33× YO—PRO buffer) and 12.5 μL of the mixture were dispensed into each well. The plates were incubated at room temperature in the dark for 30 minutes. Fluorescence intensity signals were then measured on a Synergy 4 reader (BioTek) using 485/20 nm and 530/25 nm filters for the excitation and emission, respectively. Relative proliferation values were calculated by normalizing the raw data using DMSO-treated cells (100% proliferation) and the signals obtained from cells that were evaluated at the time of compound addition (0% proliferation). The concentration-response data were fitted to a sigmoidal 4-parameter logistic model with the maximum constrained to 100%. GI50 values were calculated from the curves as the compound concentrations reducing proliferation to 50%.

MDA-MB-231 cells = test: MDA-MB-231 proliferation assay; format: cell-based; details: Homo sapiens, MDA-MB-231, 72 h, YO-PRO-1 Iodide readout
Source text: as §1, §2

T1 sequence (P49761 whole entry): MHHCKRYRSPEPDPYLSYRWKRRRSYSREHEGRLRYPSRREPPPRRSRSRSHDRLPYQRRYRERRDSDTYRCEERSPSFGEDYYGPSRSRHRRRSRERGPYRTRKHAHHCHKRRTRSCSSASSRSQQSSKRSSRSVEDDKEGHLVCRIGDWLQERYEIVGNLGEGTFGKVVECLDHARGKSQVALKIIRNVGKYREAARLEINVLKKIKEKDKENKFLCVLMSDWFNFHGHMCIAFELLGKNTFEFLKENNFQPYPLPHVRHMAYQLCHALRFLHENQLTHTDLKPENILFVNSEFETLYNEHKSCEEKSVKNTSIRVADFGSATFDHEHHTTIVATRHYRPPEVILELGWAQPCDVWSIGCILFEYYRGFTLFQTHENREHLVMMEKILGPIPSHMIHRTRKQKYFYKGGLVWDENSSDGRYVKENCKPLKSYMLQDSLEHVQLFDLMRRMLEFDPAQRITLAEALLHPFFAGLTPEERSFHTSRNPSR

| IC50 (recombinant human CLK3) [nM] | GI50 (MDA-MB-231 cells) [nM] | SMILES | GI50 (CAL-51 cells) [nM] |
| --- | --- | --- | --- |
| < 30 | < 100 | CN(c1c(O[C@H]2CC[C@H](N)CC2)ccc2c1CC(C)(C)c1c(N)ncnc1-2)S(=O)(=O)c1ccc(F)cc1 [Example 114, N-[4-amino-8-(trans-4-aminocyclohexoxy)-5,5-dimethyl-6H-benzo[h]quinazolin-7-yl]-4-fluoro-N-methyl-benzenesulfonamide] | < 100 |
| < 30 | 100 to 2000 | C/C(=C\CO)c1c(O[C@H]2CC[C@H](N)CC2)ccc2c1CC(C)(C)c1c(N)ncnc1-2 [Example 98, (E)-3-[4-amino-8-(trans-4-aminocyclohexoxy)-5,5-dimethyl-6H-benzo[h]quinazolin-7-yl]but-2-en-1-ol] | < 100 |
| < 30 | < 100 | CC1(C)Cc2c(ccc(Br)c2NC[C@@H]2CNC(=O)O2)-c2ncnc(N)c21 [Example 121, (5R)-5-[[(4-amino-8-bromo-5,5-dimethyl-6H-benzo[h]quinazolin-7-yl)amino]methyl]oxazolidin-2-one] | < 100 |
| < 30 | < 100 | CN(CCC#N)c1c(O[C@H]2CC[C@H](N(C)C)CC2)ccc2c1CC(C)(C)c1c(N)ncnc1-2 [Example 96] | < 100 |
| 101 to 1000 | > 2000 | CNC(=O)CN(C)c1c(O[C@H]2CC[C@@H](N)CC2)ccc2c1CC(C)(C)c1c(N)ncnc1-2 [Example 26, 2-[[4-amino-8-(cis-4-aminocyclohexoxy)-5,5-dimethyl-6H-benzo[h]quinazolin-7-yl]-methyl-amino]-N-methyl-acetamide] | > 2000 |
| 101 to 1000 | 100 to 2000 | COCCN(C)c1c(O[C@H]2CC[C@H](N)CC2)ccc2c1CC1(CCCC1)c1c(N)ncnc1-2 [Example 72, 8-(trans-4-aminocyclohexoxy)-N7-(2-methoxyethyl)-N7-methyl-spiro[6H-benzo[h]quinazoline-5,1′-cyclopentane]-4,7-diamine] | 100 to 2000 |
| < 30 | 100 to 2000 | Nc1ncnc2c1C1(CCCC1)Cc1c-2ccc(O[C@H]2CC[C@@H](N)CC2)c1NCCO [Example 70, 2-[[4-amino-8-(cis-4-aminocyclohexoxy)spiro[6H-benzo[h]quinazoline-5,1′-cyclopentane]-7-yl]amino]ethanol] | 100 to 2000 |
| 30 to 100 | 100 to 2000 | CN(Cc1c[nH]cn1)c1c(O[C@H]2CC[C@H](N)CC2)ccc2c1CC(C)(C)c1c(N)ncnc1-2 [Example 103, 8-(trans-4-aminocyclohexoxy)-N7-(1H-imidazol-4-ylmethyl)-N7,5,5-trimethyl-6H-benzo[h]quinazoline-4,7-diamine] | 100 to 2000 |
| < 30 | 100 to 2000 | CN(CC#N)c1c(O[C@H]2CC[C@H](N)CC2)ccc2c1CC(C)(C)c1c(N)ncnc1-2 [Example 33, 2-[[4-amino-8-(trans-4-aminocyclohexoxy)-5,5-dimethyl-6H-benzo[h]quinazolin-7-yl]-methyl-amino]acetonitrile] | < 100 |
| 30 to 100 | > 2000 | CC1(C)Cc2c(ccc(O[C@H]3CC[C@H](N)CC3)c2S(=O)(=O)CCC#N)-c2ncnc(N)c21 [Example 112, 3-[[4-amino-8-(trans-4-aminocyclohexoxy)-5,5-dimethyl-6H-benzo[h]quinazolin-7-yl]sulfonyl]propanenitrile] | 100 to 2000 |
| 101 to 1000 | > 2000 | CN(CC#N)C(=O)c1c(O[C@H]2CC[C@H](N)CC2)ccc2c1CC(C)(C)c1c(N)ncnc1-2 [Example 94, 4-amino-8-(trans-4-aminocyclohexoxy)-N-(cyanomethyl)-N,5,5-trimethyl-6H-benzo[h]quinazoline-7-carboxamide] | 100 to 2000 |
| < 30 | 100 to 2000 | CN(c1c(O[C@H]2CC[C@H](N)CC2)ccc2c1CC(C)(C)c1c(N)ncnc1-2)S(=O)(=O)CCC#N [Example 74, N-[4-amino-8-(trans-4-aminocyclohexoxy)-5,5-dimethyl-6H-benzo[h]quinazolin-7-yl]-2-cyano-N-methyl-ethanesulfonamide] | < 100 |
| 101 to 1000 | 100 to 2000 | COc1ccc2c(c1NCC[C@@H]1CNC(=O)O1)CC(C)(C)c1c(N)ncnc1-2 [Example 89, (5R)-5-[2-[(4-amino-8-methoxy-5,5-dimethyl-6H-benzo[h]quinazolin-7-yl)amino]ethyl]oxazolidin-2-one] | 100 to 2000 |
| 30 to 100 | > 2000 | CC(=O)NCCN(C)c1c(O[C@H]2CC[C@H](N)CC2)ccc2c1CC(C)(C)c1c(N)ncnc1-2 [Example 38, N-[2-[[4-amino-8-(trans-4-aminocyclohexoxy)-5,5-dimethyl-6H-benzo[h]quinazolin-7-yl]-methyl-amino]ethyl]acetamide] | 100 to 2000 |
| < 30 | < 100 | COCCN[C@H]1CC[C@H](Oc2ccc3c(c2N(C)CCC#N)CC(C)(C)c2c(N)ncnc2-3)CC1 [Example 53, 3-[[4-amino-8-[trans-4-(2-methoxyethylamino)cyclohexoxy]-5,5-dimethyl-6H-benzo[h]quinazolin-7-yl]-methyl-amino]propanenitrile] | < 100 |
| < 30 | 100 to 2000 | CC1(C)Cc2c(ccc(O[C@H]3CC[C@H](N4CCOCC4)CC3)c2NC[C@@H]2CNC(=O)O2)-c2ncnc(N)c21 [Example 131, (5R)-5-[[[4-amino-5,5-dimethyl-8-(trans-4-morpholinocyclohexoxy)-6H-benzo[h]quinazolin-7-yl]amino]methyl]oxazolidin-2-one] | 100 to 2000 |
| < 30 | < 100 | CN(CCC#N)c1c(OC2CCCNCC2)ccc2c1CC(C)(C)c1c(N)ncnc1-2 (stereo not drawn) [Example 78, 3-[[4-amino-8-(azepan-4-yloxy)-5,5-dimethyl-6H-benzo[h]quinazolin-7-yl]-methyl-amino]propanenitrile] | < 100 |
| 101 to 1000 | 100 to 2000 | CC1(C)Cc2c(ccc(O[C@H]3CC[C@H](N)CC3)c2NCC2(C#N)CC2)-c2ncnc(N)c21 [Example 76, 1-[[[4-amino-8-(trans-4-aminocyclohexoxy)-5,5-dimethyl-6H-benzo[h]quinazolin-7-yl]amino]methyl]cyclopropanecarbonitrile] | 100 to 2000 |
| < 30 | < 100 | CN(CC(C)(C)C#N)c1c(O[C@H]2CC[C@H](N)CC2)ccc2c1CC(C)(C)c1c(N)ncnc1-2 [Example 91, 3-[[4-amino-8-(trans-4-aminocyclohexoxy)-5,5-dimethyl-6H-benzo[h]quinazolin-7-yl]-methyl-amino]-2,2-dimethyl-propanenitrile] | < 100 |
| 30 to 100 | 100 to 2000 | CN(CCOC(F)(F)F)c1c(O[C@H]2CC[C@H](N)CC2)ccc2c1CC(C)(C)c1c(N)ncnc1-2 [Example 47, 8-(trans-4-aminocyclohexoxy)-N7,5,5-trimethyl-N7-[2-(trifluoromethoxy)ethyl]-6H-benzo[h]quinazoline-4,7-diamine] | < 100 |
